Test results taken from patent EP4603105A1, “PHARMACEUTICAL COMPOSITION CONTAINING CYCLIC COMPOUND HAVING SELECTIVE KRAS INHIBITORY EFFECT AGAINST HRAS AND NRAS” (CHUGAI SEIYAKU KABUSHIKI KAISHA, priority 2022, dated 2024).
pIC50, pKd: −log10 of the molar value.

Tests used:
[1] = biological target: GDP-bound KRAS wild-type protein (Homo sapiens, UniProt P01116); experiment: Binding to KRAS by surface plasmon resonance (SPR), dissociation constant KD; settings: 1:1 binding model
In short: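 Biotinylated GDP-bound RAS was captured at about 100–300 RU. Running buffer: HBS pH 7.4, 10 mM MgCl2, 10 µM GDP, 1 mM DTT, 0.01% Tween 20, 4% DMSO.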

[2] = test system: human lung cancer strain NCI-H441; experiment: NCI-H441 cell proliferation inhibitory activity (CellTiter-Glo, 4 days); format: cell-based; settings: NCI-H441 cells, 4 days, read-out: NCl-H441 IC50
In short: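 Step one: dispense the test compound in serial DMSO dilutions. Step three: add the reagent and measure […].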

HRAS wild-type protein = HRAS wild-type protein (Homo sapiens, UniProt P01112); experiment: Binding to HRAS by surface plasmon resonance (SPR), KD and KD ratio to KRAS; settings: ratio of KD for HRAS wild-type protein to KD for KRAS
In short: (§1)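 Captured GDP-RAS (~100–300 RU) was exposed to increasing compound concentrations, 75 s per step, in running buffer with 10 µM GDP, 10 mM MgCl2 and 4% DMSO at pH 7.4.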

[3] = biological target: GDP-bound NRAS wild-type protein (Homo sapiens, UniProt P01111); experiment: Binding to NRAS by surface plasmon resonance (SPR), KD and KD ratio to KRAS; settings: ratio of KD for GDP-bound NRAS wild-type protein to KD for KRAS
In short: as §1

HRAS wild-type protein, sequence (P01112 whole entry): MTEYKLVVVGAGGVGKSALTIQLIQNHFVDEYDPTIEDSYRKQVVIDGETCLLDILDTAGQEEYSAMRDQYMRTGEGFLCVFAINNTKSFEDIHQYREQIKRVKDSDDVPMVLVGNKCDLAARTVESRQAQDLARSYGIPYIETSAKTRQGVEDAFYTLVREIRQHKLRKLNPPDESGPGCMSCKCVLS
GDP-bound KRAS wild-type protein, sequence (P01116 1-188 isoform P01116-2): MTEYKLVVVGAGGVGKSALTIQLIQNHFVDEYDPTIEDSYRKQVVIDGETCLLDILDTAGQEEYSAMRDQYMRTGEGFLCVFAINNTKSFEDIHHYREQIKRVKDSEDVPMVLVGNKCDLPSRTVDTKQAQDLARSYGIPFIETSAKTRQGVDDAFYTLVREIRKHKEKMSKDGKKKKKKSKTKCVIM
GDP-bound NRAS wild-type protein, sequence (P01111 whole entry): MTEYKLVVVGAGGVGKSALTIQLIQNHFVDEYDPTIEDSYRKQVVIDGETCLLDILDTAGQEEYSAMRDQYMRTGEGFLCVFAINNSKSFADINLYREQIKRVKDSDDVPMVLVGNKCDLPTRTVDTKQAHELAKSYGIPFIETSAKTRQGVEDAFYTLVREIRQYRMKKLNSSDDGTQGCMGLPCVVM

SMILES: CCOC[C@H]1C(=O)N[C@@H]([C@@H](C)CC)C(=O)N2CCC[C@H]2C(=O)N(C)[C@H]2C/C=C\CCN(C2=O)[C@@H](CC2CCCCC2)C(=O)N(C)CC(=O)N[C@@H](CCc2ccc(C(F)(F)F)c(OC)c2)C(=O)N2C[C@@H](C)C[C@H]2C(=O)N(C)C2(CCC2)C(=O)N(C)[C@@H](C2CCCC2)C(=O)N(C)[C@H](C(=O)N(C)C)CC(=O)N1C [PP2375]
- pKd [1]: 8.96
- pIC50 [2]: 6.77
- HRAS /KRAS (HRAS wild-type protein): B (a compound having 3 or more and less than 10 is denoted as B)
- NRAS /KRAS [3]: A (a compound having 10 or more and less than 20 is denoted as A)

SMILES: CCC[C@H]1C(=O)N[C@@H]([C@@H](C)CC)C(=O)N(C2CC2)CC(=O)N(C)[C@H]2C/C=C\CCN(C2=O)[C@@H](CC2CCC(F)(F)CC2)C(=O)N(C)CC(=O)N[C@@H](CCc2ccc(C(F)(F)F)c(OC)c2)C(=O)N2C[C@@H](C)C[C@H]2C(=O)N(C)C2(CCC2)C(=O)N(C)[C@@H](C2CCCC2)C(=O)N(C)[C@H](C(=O)N(C)C)CC(=O)N1C [PP2378]
- pKd [1]: 9.06
- pIC50 [2]: 7.32
- HRAS /KRAS (HRAS wild-type protein): A (a compound having 10 or more and less than 20 is denoted as A)
- NRAS /KRAS [3]: B (a compound having 3 or more and less than 10 is denoted as B)

SMILES: CCCOC[C@H]1C(=O)N[C@@H]([C@@H](C)CC)C(=O)N(C2CC2)CC(=O)N(C)[C@H]2C/C=C\CCN(C2=O)[C@@H](CC2CCC(F)(F)CC2)C(=O)N(C)CC(=O)N[C@@H](CCc2ccc(C(F)(F)F)c(OC)c2)C(=O)N2C[C@@H](C)C[C@H]2C(=O)N(C)C2(CCC2)C(=O)N(C)[C@@H](C2CCCC2)C(=O)N(C)[C@H](C(=O)N(C)C)CC(=O)N1C [PP2379]
- pKd [1]: 9.12
- pIC50 [2]: 8.66
- HRAS /KRAS (HRAS wild-type protein): A (a compound having 10 or more and less than 20 is denoted as A)
- NRAS /KRAS [3]: A (a compound having 10 or more and less than 20 is denoted as A)

SMILES: CCC[C@H]1C(=O)N[C@@H]([C@@H](C)CC)C(=O)N2CCC[C@H]2C(=O)N(C)[C@H]2C/C=C\CCN(C2=O)[C@@H](CC2CCC(F)(F)CC2)C(=O)N(C)CC(=O)N[C@@H](CCc2ccc(C(F)(F)F)c(OC)c2)C(=O)N2C[C@@H](C)C[C@H]2C(=O)N(C)C2(CCC2)C(=O)N(C)[C@@H](C2CCCC2)C(=O)N(C)[C@H](C(=O)N(C)C)CC(=O)N1C [PP2380]
- pKd [1]: 9.07
- pIC50 [2]: 8.68
- HRAS /KRAS (HRAS wild-type protein): A (a compound having 10 or more and less than 20 is denoted as A)
- NRAS /KRAS [3]: A (a compound having 10 or more and less than 20 is denoted as A)

SMILES: CCCOC[C@H]1C(=O)N[C@@H]([C@@H](C)CC)C(=O)N2CCC[C@H]2C(=O)N(C)[C@H]2C/C=C\CCN(C2=O)[C@@H](CC2CCC(F)(F)CC2)C(=O)N(C)CC(=O)N[C@@H](CCc2ccc(C(F)(F)F)c(OC)c2)C(=O)N2C[C@@H](C)C[C@H]2C(=O)N(C)C2(CCC2)C(=O)N(C)[C@@H](C2CCCC2)C(=O)N(C)[C@H](C(=O)N(C)C)CC(=O)N1C [PP2381]
- pKd [1]: 9.03
- pIC50 [2]: 8.49
- HRAS /KRAS (HRAS wild-type protein): A (a compound having 10 or more and less than 20 is denoted as A)
- NRAS /KRAS [3]: A (a compound having 10 or more and less than 20 is denoted as A)

SMILES: CCC[C@H]1C(=O)N[C@@H]([C@@H](C)CC)C(=O)N(C)CC(=O)N(C)[C@H]2C/C=C\CCN(C2=O)[C@@H](Cc2ccc(C(F)(F)F)cc2)C(=O)N(C)CC(=O)N[C@@H](CCc2ccc(C(F)(F)F)c(OC)c2)C(=O)N2C[C@H](OCC)C[C@H]2C(=O)N(C)C2(CCC2)C(=O)N(C)[C@@H](C(CC)CC)C(=O)N(C)[C@H](C(=O)N(C)C)CC(=O)N1C [PP2382]
- pKd [1]: 9.92
- pIC50 [2]: 8.34
- HRAS /KRAS (HRAS wild-type protein): A (a compound having 10 or more and less than 20 is denoted as A)
- NRAS /KRAS [3]: A (a compound having 10 or more and less than 20 is denoted as A)

SMILES: CCOC[C@H]1C(=O)N[C@@H]([C@@H](C)CC)C(=O)N(C)CC(=O)N(C)[C@H]2C/C=C\CCN(C2=O)[C@@H](Cc2ccc(C(F)(F)F)cc2)C(=O)N(C)CC(=O)N[C@@H](CCc2ccc(C(F)(F)F)c(OC)c2)C(=O)N2C[C@H](OCC)C[C@H]2C(=O)N(C)C2(CCC2)C(=O)N(C)[C@@H](C(CC)CC)C(=O)N(C)[C@H](C(=O)N(C)C)CC(=O)N1C [PP2383]
- pKd [1]: 9.92
- pIC50 [2]: 8.28
- HRAS /KRAS (HRAS wild-type protein): A (a compound having 10 or more and less than 20 is denoted as A)
- NRAS /KRAS [3]: A (a compound having 10 or more and less than 20 is denoted as A)

SMILES: CC[C@H](C)[C@@H]1NC(=O)[C@H](COC)N(C)C(=O)C[C@@H](C(=O)N(C)C)N(C)C(=O)[C@H](C2CCCC2)N(C)C(=O)C2(CC(C)(C)C2)NC(=O)[C@@H]2C[C@H](C)CN2C(=O)[C@H](CCc2ccc(C(F)(F)F)c(OC)c2)NC(=O)CN(C)C(=O)[C@H](Cc2ccc(C)cc2)N2CC/C=C\C[C@@H](C2=O)N(C)C(=O)[C@@H]2C[C@H](C)CN2C1=O [PP2386]
- pKd [1]: 8.92
- pIC50 [2]: 7.55
- HRAS /KRAS (HRAS wild-type protein): B (a compound having 3 or more and less than 10 is denoted as B)
- NRAS /KRAS [3]: A (a compound having 10 or more and less than 20 is denoted as A)

SMILES: CC[C@H](C)[C@@H]1NC(=O)[C@H](COC)N(C)C(=O)C[C@@H](C(=O)N(C)C)N(C)C(=O)[C@H](C2CCCC2)N(C)C(=O)C2(CC(C)(C)C2)NC(=O)[C@@H]2C[C@@H](C)CN2C(=O)[C@H](CCc2ccc(C(F)(F)F)c(OC)c2)NC(=O)CN(C)C(=O)[C@H](Cc2ccc(C)cc2)N2CC/C=C\C[C@@H](C2=O)N(C)C(=O)CN(C)C1=O [PP2387]
- pKd [1]: 9.96
- pIC50 [2]: 7.78
- HRAS /KRAS (HRAS wild-type protein): A (a compound having 10 or more and less than 20 is denoted as A)
- NRAS /KRAS [3]: A (a compound having 10 or more and less than 20 is denoted as A)

SMILES: CCO[C@@H]1C[C@H]2C(=O)NC3(CC(C)(C)C3)C(=O)N(C)[C@@H](C3CCCC3)C(=O)N(C)[C@H](C(=O)N(C)C)CC(=O)N(C)[C@@H](COC)C(=O)N[C@@H]([C@@H](C)CC)C(=O)N(C)CC(=O)N(C)[C@H]3C/C=C\CCN(C3=O)[C@@H](Cc3ccc(C)cc3)C(=O)N(C)CC(=O)N[C@@H](CCc3ccc(C(F)(F)F)c(Cl)c3)C(=O)N2C1 [PP2389]
- pKd [1]: 10.10
- pIC50 [2]: 7.67
- HRAS /KRAS (HRAS wild-type protein): B (a compound having 3 or more and less than 10 is denoted as B)
- NRAS /KRAS [3]: A (a compound having 10 or more and less than 20 is denoted as A)

SMILES: CC[C@H](C)[C@@H]1NC(=O)[C@H](COC)N(C)C(=O)C[C@@H](C(=O)N(C)C)N(C)C(=O)[C@H](C2CCCC2)N(C)C(=O)C2(CC(C)(C)C2)NC(=O)[C@@H]2C[C@H](C)CN2C(=O)[C@H](CCc2ccc(C(F)(F)F)c(OC)c2)NC(=O)CN(C)C(=O)[C@H](Cc2ccc(C)cc2)N2CC/C=C\C[C@@H](C2=O)N(C)C(=O)[C@@H]2C[C@H](OC)CN2C1=O [PP2390]
- pKd [1]: 9.55
- pIC50 [2]: 7.01
- HRAS /KRAS (HRAS wild-type protein): B (a compound having 3 or more and less than 10 is denoted as B)
- NRAS /KRAS [3]: A (a compound having 10 or more and less than 20 is denoted as A)

SMILES: CCOC[C@H]1C(=O)N[C@@H]([C@@H](C)CC)C(=O)N(C)CC(=O)N(C)[C@H]2C/C=C\CCN(C2=O)[C@@H](Cc2ccc(C)cc2)C(=O)N(C)CC(=O)N[C@@H](CCc2ccc(C(F)(F)F)c(OC)c2)C(=O)N2C[C@H](C)C[C@H]2C(=O)NC2(CC(C)(C)C2)C(=O)N(C)[C@@H](C2CCCC2)C(=O)N(C)[C@H](C(=O)N(C)C)CC(=O)N1C [PP2393]
- pKd [1]: 9.92
- pIC50 [2]: 7.55
- HRAS /KRAS (HRAS wild-type protein): A (a compound having 10 or more and less than 20 is denoted as A)
- NRAS /KRAS [3]: A (a compound having 10 or more and less than 20 is denoted as A)

SMILES: CCOC[C@H]1C(=O)N[C@@H]([C@@H](C)CC)C(=O)N(C)CC(=O)N(C)[C@H]2C/C=C\CCN(C2=O)[C@@H](Cc2ccc(C)cc2)C(=O)N(C)CC(=O)N[C@@H](CCc2ccc(C(F)(F)F)c(Cl)c2)C(=O)N2C[C@@H](C)C[C@H]2C(=O)NC2(CC(C)(C)C2)C(=O)N(C)[C@@H](C2CCCC2)C(=O)N(C)[C@H](C(=O)N(C)C)CC(=O)N1C [PP2394]
- pKd [1]: 9.92
- pIC50 [2]: 8.08
- HRAS /KRAS (HRAS wild-type protein): B (a compound having 3 or more and less than 10 is denoted as B)
- NRAS /KRAS [3]: A (a compound having 10 or more and less than 20 is denoted as A)

SMILES: CCOC[C@H]1C(=O)N[C@@H]([C@@H](C)CC)C(=O)N(C)CC(=O)N(C)[C@H]2C/C=C\CCN(C2=O)[C@@H](Cc2ccc(C)cc2)C(=O)N(C)CC(=O)N[C@@H](CCc2ccc(C(F)(F)F)c(Cl)c2)C(=O)N2C[C@H](OCC)C[C@H]2C(=O)NC2(CC(C)(C)C2)C(=O)N(C)[C@@H](C2CCCC2)C(=O)N(C)[C@H](C(=O)N(C)C)CC(=O)N1C [PP2395]
- pKd [1]: 10.14
- pIC50 [2]: 8.20
- HRAS /KRAS (HRAS wild-type protein): B (a compound having 3 or more and less than 10 is denoted as B)
- NRAS /KRAS [3]: A (a compound having 10 or more and less than 20 is denoted as A)
